Experimental data taken from patent US6124287A, “Imidazo[1,2-a]quinoxalin-4-amines active as adenosine antagonists, process for their preparation and pharmaceutical compositions thereof” (Biomedica Foscama Industria Chimicofarmaceutica S.p.A., priority 1995, dated 2000).

Columns and labels:
A1 receptors [1] = target: T1, A1 receptors (Rattus norvegicus, UniProt P25099); experiment: Binding on A1 receptors, rat brain synaptosomial membranes, [3H]-DPCPX; conditions: 0.3 nM [3H]-DPCPX, 1 h, 25° C., pH 7.4
T1 construct: preparations of synaptosomial membranes from rat brain; from tissue; host or cells: rat brain synaptosomal membranes
T1 sequence (P25099 1-326): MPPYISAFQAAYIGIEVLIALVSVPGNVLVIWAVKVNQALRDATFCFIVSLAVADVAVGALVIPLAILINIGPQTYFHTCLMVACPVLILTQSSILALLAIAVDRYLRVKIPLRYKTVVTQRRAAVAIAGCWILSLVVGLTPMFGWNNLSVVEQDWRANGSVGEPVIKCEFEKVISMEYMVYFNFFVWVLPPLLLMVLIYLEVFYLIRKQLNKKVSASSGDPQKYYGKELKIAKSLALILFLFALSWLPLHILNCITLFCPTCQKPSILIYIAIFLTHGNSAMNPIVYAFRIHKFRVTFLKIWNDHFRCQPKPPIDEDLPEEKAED
Procedure: (§1) Binding on the adenosine receptors.
The binding on A1 receptors has been carried out according to the method described in Naunyn-Schmied. Arch. Pharmacol. 1987, 336, 204 on preparations of synaptosomial membranes from rat brain by incubating 200 μg of membrane proteins for 1 h at 25° C. with the substance to be tested and 0.3 nM [^3 H]-DPCPX in 400 μl of 50 mM Tris.HCl pH=7.4. The non-specific binding has been determined with […].
(§2) The incubations were blocked by filtration by means of a cell-harvester and, after completion of the separation of the bound from the free, the radioactivity contents were evaluated by liquid scintillation. The concentration-inhibition curves were obtained by assaying the receptor displacement at at least ten different concentrations of the test substance (all the assays were carried out in triplicate). The tested substances were dissolved in dimethyl sulphoxide and diluted in 50 mM Tris.HCl buffer pH=7.4. The IC50 values have been determined by non-linear regression curves and transformed into Ki values according to the Cheng-Prusoff equation.

Tail suspension test = assay type: in vivo, Male albino CD 1 mice; conditions: half an hour before test
Procedure: Tail suspension test The test described by L. Steru, et al. in Psychopharmacology 1985, 85, 367, also widely used as an animal model for the screening of antidepressant activity has been carried out. Male albino CD 1 mice weighing 25-35 g were used. Half an hour before the test, the animal is administered the test compound by the i.p. route; the control animals are administered the vehicle. The mouse is suspended from a horizontal bar at about 40 cm from the support plane by means of an adhesive tape applied at the end of the tail and secured to a hook. […] As the reference substance the tricyclic antidepressant drug desipramine was used.

Forced swim test = assay type: in vivo, Male ablino CD 1 mice; conditions: 1 h before immersion
Procedure: Forced swim test The test described by R. D. Porsolt et al. in Arch.Int.Pharmacodyn.Ther. 1977, 229, 327, has been carried out which is widely used as an animal model for the study of the antidepressant activity of new drugs. Male ablino CD 1 mice weighing 25-35 g were used. One hour before immersion in water, the test compound is intraperitoneally (i.p.) administered to the animal; the vehicle is administered to the control animals. The duration of permanence in water is 6'; from the 2nd to the 6th minute the time is measured during which the animal remains motionless. […] As the reference substance the tricyclic antidepressant drug desipramine was used.

A1 receptors [2] = target: T2, A1 receptors (Rattus norvegicus, UniProt P30543); experiment: Binding on receptors (printed A1) of rat striatal membranes, [3H]-CGS21680 + CPA; conditions: 5 nM [3H]-CGS21680, 50 nM CPA, 1 h, 25° C.
T2 construct: preparations of rat striatal membranes; from tissue; host or cells: rat striatal membranes
Procedure: as §1
The binding on […] receptors has been carried out according to the method described in FASEB J. 1989, 3, A1047 on preparations of rat striatal membranes by incubating 200 μg of membrane proteins for 1 h at 25° C. with the substance to be tested, 5 nM [^3 H]-CGS21680 and 50 nM CPA. The non-specific binding has been determined with 100 nM CPA.
as §2

adenosine receptors = conditions: cited from earlier work

T2 sequence (P30543 whole entry): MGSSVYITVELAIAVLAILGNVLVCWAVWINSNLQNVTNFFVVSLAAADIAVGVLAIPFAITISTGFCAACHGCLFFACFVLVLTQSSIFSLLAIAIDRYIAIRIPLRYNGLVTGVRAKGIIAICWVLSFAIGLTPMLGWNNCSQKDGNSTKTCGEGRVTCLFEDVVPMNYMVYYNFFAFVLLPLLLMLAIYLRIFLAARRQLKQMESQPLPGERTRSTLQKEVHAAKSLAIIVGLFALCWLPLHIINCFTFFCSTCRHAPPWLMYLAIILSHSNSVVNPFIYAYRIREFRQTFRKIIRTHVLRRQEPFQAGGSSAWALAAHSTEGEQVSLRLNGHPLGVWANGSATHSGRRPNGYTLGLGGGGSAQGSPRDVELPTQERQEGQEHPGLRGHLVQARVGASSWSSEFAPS

Compound: CCC(CC)Nc1nc2ccccc2n2c(C)cnc12 [COMPOUND EX. 5, 4-(1-ethylpropylamino)-1-methylimidazo[1,2-a] quinoxaline]
- Ki (A1 receptors [1]): 54 nM

Compound: Cc1cnc2c(NC3CCCC3)nc3ccccc3n12 [COMPOUND EX. 9, 4-cyclopentylamino-1-methyl imidazo [1,2-a]quinoxaline]
- % variation immobility time vs. C. (Tail suspension test; 0.001 mg/kg i.p.): -26.7%
- % variation immobility time vs. C. (Tail suspension test; 0.01 mg/kg i.p.): -41.1%
- % variation immobility time vs. C. (Tail suspension test; 0.1 mg/kg i.p.): -64.3%
- % variation immobility time vs. C. (Forced swim test; 0.001 mg/kg i.p.): -32.8%
- % variation immobility time vs. C. (Forced swim test; 0.01 mg/kg i.p.): -45.3%
- Ki (A1 receptors [2]): 2500 nM
- Ki (A1 receptors [1]): 7.9 nM

Compound: Cc1cnc2c(N3CCCCC3)nc3ccccc3n12 [COMPOUND EX. 13, 1-methyl-4-piperidinylimidazo[1,2-a]quinoxaline]
- % variation immobility time vs. C. (Forced swim test; 0.1 mg/kg i.p.): -23.5%
- % variation immobility time vs. C. (Forced swim test; 1 mg/kg i.p.): -70.7%

Compound: Cc1cnc2c(N3CCN(C)CC3)nc3ccccc3n12 [COMPOUND EX. 16, 1-methyl-4(N'-methylpiperazinyl)imidazo[1,2-a]quinoxaline]
- % variation immobility time vs. C. (Forced swim test; 0.1 mg/kg i.p.): -22.4%
- % variation immobility time vs. C. (Forced swim test; 1 mg/kg i.p.): -51.4%

Compound: Clc1ccc2nc(NC3CCCC3)c3nccn3c2c1 [COMPOUND EX. 18, 4-cyclopentylamino-8-chloroimidazo[1,2-a]quinoxaline]
- % variation immobility time vs. C. (Forced swim test; 1 mg/kg i.p.): -42.3%
- % variation immobility time vs. C. (Forced swim test; 10 mg/kg i.p.): -52.8%
- Ki (A1 receptors [1]): 23.5 nM

Compound: Cc1cnc2c(NC3CCCCC3)nc3ccc(Cl)cc3n12 [COMPOUND EX. 21, 4-cyclohexylamino-8-chloro-1-methylimidazo[1,2-a]quinoxaline]
- % variation immobility time vs. C. (Forced swim test; 0.001 mg/kg i.p.): -33.0%
- % variation immobility time vs. C. (Forced swim test; 0.01 mg/kg i.p.): -48.6%

Compound: Clc1cc2nc(NC3CCCC3)c3nccn3c2cc1Cl [COMPOUND EX. 22, 4-cyclopentylamino-7,8-dichloroimidazo[1,2-a]quinoxaline]
- Ki (A1 receptors [1]): 26.5 nM

Compound: Fc1ccc2nc(NC3CCCC3)c3nccn3c2c1 [COMPOUND EX. 25]
- Ki (A1 receptors [1]): 84 nM

Compound: CNCCCN1c2ccccc2CCc2ccccc21 [DESIPRAMINE, reference compound]
- % variation immobility time vs. C. (Tail suspension test; 4 mg/kg i.p.): -21.3%
- % variation immobility time vs. C. (Tail suspension test; 16 mg/kg i.p.): -62.4%
- % variation immobility time vs. C. (Forced swim test; 7.5 mg/kg i.p.): -10.4%
- % variation immobility time vs. C. (Forced swim test; 30 mg/kg i.p.): -41.4%

Compound: Cn1c(=O)c2c(ncn2C)n(C)c1=O [caffeine, 1,3,7-trimethylxanthine]
- affinity to the adenosine receptors (adenosine receptors): low affinity

Compound: Cn1c(=O)c2[nH]cnc2n(C)c1=O [theophylline, 1,3-dimethylxanthine]
- affinity to the adenosine receptors (adenosine receptors): low affinity
